Source: US9840510B1, “Pyrazolo[1,5-a]pyrimidinyl carboxamide compounds and their use in the treatment of medical disorders” (Lysosomal Therapeutics Inc., priority 2016, dated 2017)
In brackets after ≈: the same amount, converted by molar mass.

Columns and labels:
[1] = molecular target: T1, glucocerebrosidase (Gcase) (Homo sapiens, UniProt P04062); experiment: Glucocerebrosidase (Gcase) activation assay, 4-methylumbelliferyl-beta-D-glucopyranoside substrate, fluorescence endpoint; type: biochemical; settings: for Percent Gcase Activation, 0.1 μM Test Compound: test compound at 0.1 μM; for Percent Gcase Activation, 1 μM Test Compound: test compound at 1.0 μM
T1 sequence (P04062 40-536): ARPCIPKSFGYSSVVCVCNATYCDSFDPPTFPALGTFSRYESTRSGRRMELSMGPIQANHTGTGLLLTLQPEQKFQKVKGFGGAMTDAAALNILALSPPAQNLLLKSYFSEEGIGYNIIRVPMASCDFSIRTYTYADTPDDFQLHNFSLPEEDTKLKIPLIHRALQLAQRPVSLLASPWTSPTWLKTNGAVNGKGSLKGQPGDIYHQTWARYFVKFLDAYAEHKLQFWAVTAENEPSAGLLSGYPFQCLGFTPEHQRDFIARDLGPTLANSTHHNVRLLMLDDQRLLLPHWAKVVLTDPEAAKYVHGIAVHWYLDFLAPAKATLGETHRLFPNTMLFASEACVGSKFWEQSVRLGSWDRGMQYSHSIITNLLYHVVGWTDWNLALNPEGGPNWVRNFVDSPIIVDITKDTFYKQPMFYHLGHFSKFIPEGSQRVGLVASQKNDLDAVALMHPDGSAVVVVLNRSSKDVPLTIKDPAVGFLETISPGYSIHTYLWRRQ
Experimental: The ability of exemplary compounds to activate glucocerebrosidase (Gcase) was measured.
A 484 μL aliquot of a 1.0 mg/mL solution of phosphatidylserine (PS) (Sigma P7769) in chloroform was evaporated under a stream of nitrogen for 1 hour. The lipid film was dissolved over 4 minutes of vigorous vortexing in 40 mL of 176 mM K2HPO4/50 mM citric acid (pH 4.7) containing 7.5 μL of triton X-100, resulting in a mixed micellar preparation with a composition of 0.32 mM triton and 0.37 mol % PS. 4-Methylumbelliferyl-beta-D-glucopyranoside (ACROS-337025000) was dissolved in the micellar solution to a final concentration of 2 mM for use as the reaction substrate.
Test compounds were diluted to the desired concentrations with dimethylsulfoxide (DMSO) from 10 mM stocks, and 0.41 μL of the DMSO compound mixture was added to 100 μL of micellar solution containing 10 nM GCase and 100 nM saposin C (Enzo ALX-201-262-C050). Pre-incubation was allowed to occur for 30 minutes at room temperature, after which the reaction was initiated by combining 25 μL of substrate solution with 25 μL of compound/GCase/saposin mixture. The reaction proceeded for 15 minutes at room temperature and was stopped by adding 150 μL of 1M glycine, pH 12.5. The endpoint of the reaction was monitored by measuring fluorescence intensity (excitation: 365 nm; emission: 440 nm) on a SpectraMax i3 instrument (Molecular Devices). Test compounds were screened at 1.0 and 0.1 μM final concentration, and subsequent 8-point dose response curves were obtained using 3-fold dilutions from a maximum final concentration of 5 μM.

[2] = Compound solubility in water; type: physicochemical

Compound	Percent Gcase Activation, 0.1 μM Test Compound [1]	Percent Gcase Activation, 1 μM Test Compound [1]	solubility [2] [µg/mL]
Cc1cc(-c2cccc(F)n2)nc2c(C(=O)NC(C)C3CC3)cnn12 (stereo not shown) [III-130]	*** (greater than 20% Gcase activation)	+++ (Gcase activation greater than 60%)	0.2 (≈ 0.589 µM)
COc1cccc(-c2cc(C)n3ncc(C(=O)NC(C4CC4)C(F)(F)F)c3n2)c1 (stereo not shown) [III-105]	*** (greater than 20% Gcase activation)	+++ (Gcase activation greater than 60%)	0.08 (≈ 0.198 µM)
Cc1cc(-c2ccc(Cl)cn2)nc2c(C(=O)N[C@@H](C3CC3)C(F)(F)F)cnn12 [III-118]	*** (greater than 20% Gcase activation)	+++ (Gcase activation greater than 60%)	0.4 (≈ 0.976 µM)
CNC(=O)c1cccc(-c2cc(C)n3ncc(C(=O)NC(C4CC4)C(F)(F)F)c3n2)c1 (stereo not shown) [III-414]			1.6 (≈ 3.71 µM)
Cc1cc(-c2cccc3c2OCO3)nc2c(C(=O)N[C@@H](C)C3CC3)cnn12 [III-182]			0.2 (≈ 0.549 µM)
Cc1cc(NC2CC2)nc2c(C(=O)NC(C3CC3)C3CC3)cnn12 [III-78]			5.6 (≈ 17.2 µM)
Cc1cc(-c2cccc(F)n2)nc2c(C(=O)N[C@@H](C)C3CC3)cnn12 [III-134]			0.8 (≈ 2.36 µM)
COc1ccc(-c2cc(C)n3ncc(C(=O)NC(C)C(F)(F)F)c3n2)cn1 (stereo not shown) [III-271]			2.3 (≈ 6.06 µM)
Cc1cc(N2CCCC(F)(F)C2)nc2c(C(=O)N[C@H](C3CC3)C(F)(F)F)cnn12 [III-94]			0.6 (≈ 1.44 µM)
Cc1coc(-c2cc(C)n3ncc(C(=O)NC(C4CC4)C(F)(F)F)c3n2)n1 (stereo not shown) [III-254]			0.6 (≈ 1.58 µM)
Cc1cc(-c2ccncc2)n2ncc(C(=O)N[C@@H](C)C3CC3)c2n1 [III-29]			18.9 (≈ 58.8 µM)
CNc1cc(C)n2ncc(C(=O)N[C@@H](C)C3CC3)c2n1 [III-6]			23.8 (≈ 87.1 µM)
Cc1cc(-c2cc(C)n3ncc(C(=O)N[C@H](C)C(F)(F)F)c3n2)co1 [III-338]			0.2 (≈ 0.568 µM)
Cc1cc(-c2occc2C#N)nc2c(C(=O)NC(C3CC3)C(F)(F)F)cnn12 (stereo not shown) [III-250]			0.4 (≈ 1.03 µM)
Cc1cc(-c2ccc(F)nc2)nc2c(C(=O)NC(C3CC3)C(F)(F)F)cnn12 (stereo not shown) [III-84]			0.8 (≈ 2.03 µM)
Cc1cc(-c2cccnc2F)nc2c(C(=O)N[C@@H](C3CC3)C(F)(F)F)cnn12 [III-115]			1.9 (≈ 4.83 µM)
